We go through five molecules from patent US20230174633A1, “METHODS AND COMPOSITIONS FOR MODULATING LIPID STORAGE IN ADIPOSE TISSUE” (MEMORIAL SLOAN KETTERING CANCER CENTER, priority 2020, published 2023).

One experiment concerns C57B1/6J mice. Description: Treatment of C57Bl/6J mice fed 45% or 10% lipid diet (diet-induced obesity). To be noted: 1,200 mg PLX5622/kg of food. The format is in vivo, mouse. An excerpt: (§1) Mice and diets. All experiments on mice were realized in accordance with an animal license issued by the Institutional Review Board (IACUC 15-04-006) from MSKCC. All mice were maintained under SPF conditions. C57B1/6J male mice were purchased from Jackson laboratories. Rosa26^LSL-Tomato (Stock No: 007908), Rosa26^LSL-^YFP (Stock No:006148), Rosa26^mTmG (Stock No: 007576) and Lepr^-/-(db/db) (herein referred to as Lepr^-/-; Stock No: 000697) mice were purchased from Jackson laboratories and bred in house. Csf1r^Cre, Csf1r^MeriCreMer, and Csf1r^fl/fl mice were obtained from J W. Pollard (The University of Edinburgh), Cx3cr1^GFP/+ mice were obtained from Drs. Dan Littman (NYU Skirball institute), Flt3^Cre mice were obtained from Thomas Boehm (Max Planck institute) and Tnfrsf11a^Cre mice were obtained from Y. Kobayashi (Matsumoto Dental University). Ccr2^-/- mice were obtained from IF. Charro (UCSF) Csf1r^-/- mice were backcrossed to FVB/NJ for more than 10 generations. Mice were fed ad libitum a rodent irradiated diet containing 45% kcal from lipids (Research Diets Inc., reference D12451i) or 10% kcal from lipids (Research Diets Inc., reference D12450hi) for 8 weeks. In mice supplemented with the CSF-1R inhibitor PLX5622 (Plexxikon), the aforementioned diets were impregnated with 1200 mg of inhibitor per kg of food. In the experiment named 45%>10% the mice were fed 45% lipid diet for 8 weeks then 10% lipid diet for 2 weeks and compared to mice fed 10% lipid diet for 10 weeks. Mice were weighed weekly. Tnfrsf11a^Cre; Csflr^f/f and Csf1r^Cre; Csf1r^f/f mice are osteopetrotic and as such lack teeth. To prevent confounding systemic effects due to nutritional intake problems, the Tnfrsf11a^Cre; Csf1r^f/f Csf1r^Cre; Csf1r^f/f and control littermates were fed a nutritionally fortified water gel. The nutritional gels were replaced every 12 hours.
Glucose and insulin tolerance tests were performed as described; in brief, for the glucose tolerance test, the mice were fasted for 4h before experiment, but had water ad libitum. The weight and glycaemia were measured, and the mice were injected intraperitoneally with 2 g glucose (Thermo Scientific) per kg of body weight. Following the glucose injection, glycemia was measured every 30 min for 2 hours. For the insulin tolerance test, the mice were fasted for 4h before experiment, but had water ad libitum. The weight and the glycaemia were measured, and the mice were injected with 0.25U insulin (Sigma) per kg of body weight. Following the glucose injection, glycemia was measured every 30 min for 2 hours. To measure the glycaemia, the tail of the animals was pricked with a 27G needle and a drop of blood was placed on the glucometer (ACCU-CHECK AVIVA, Roche). […]
(§2) Metabolic analysis of Leptin receptor deficient mice, PLX5622-treated mice, anti-PDGFcc treated mice, and control C57Bl/6J mice. Animals were individually housed in a temperature controlled Promethion Metabolic Screening System (Sable Systems International, NV). Food intake was acquired gravimetrically and ambulatory activity was acquired using a laser matrix. Mice were acclimated to this environment on a 12 hr light/dark cycle for 48 hr before the indicated length of recording (24 hr to 120 hr) period began. Fecal bomb calorimetry was performed on feces collected during the last day of metabolic cage recording period, dehydrated in an oven at 60C for 48 hr, then combusted in technical duplicates with a Parr 6725 Semimicro Calorimeter to determine gross caloric intake.
Infrared imaging of mice. Infrared images were taken on the last day of metabolic analysis using a FLIR T430sc Infrared Camera. These images were into RAW files and then analyzed in AMIDE. A box was drawn over region of interest (ROI); interscapular (70×30), inguinal (35×35) and dorsal. The 10% top warmest pixels were used for interscapular and inguinal quantifications. The 20% top warmest pixels were used for dorsal quantifications. […]

For a further experiment, the system named is Lepr^-/- (db/db) mice. Description: PLX5622 treatment of leptin-receptor deficient mice that spontaneously develop obesity. The format is in vivo, mouse.
Excerpt: as §1, §2
Triglyceride Measurement for Mice. To measure triglycerides, ~ 100 mg of mouse liver was homogenized in 100 µl of PBS + 0.05% Tween 20. Triglyceride was then measured using the free glycerol reagent (Sigma; F6428) as described in the manufacturer’s protocol and normalized to the liver weight.
To quantify the size of the adipocytes, the software image J was used. Regions of interest (ROI) were drawn following the cellular membrane of the adipocytes and the surface of the ROI was determined by the software. 50 adipocytes were measured per field of view of the eWAT. Adipocytes were measured on 3 fields of view, taken with N-Achroplan 10x/0.25 objective. Crown-like structures (CLS) were quantified on the same fields of view. Crown like structures were defined as microscopic foci of dying adipocytes surrounded by macrophages as visualized by H&E staining.

The subject of experiment [1] is epididymal fat pad explants. Description: eWAT (epididymal fat pad) explants cultured ex vivo, lipid storage by adipocytes. The format is cell-based, mouse. To be noted: Tnfrsf11a^Cre; Csf1r^f/f fat pads; 100 ng/ml PDGFcc, 10 ng/ml VEGFb or 10 ng/ml IGF1 on days 0, 3, 6. How it is done:
Whole Mount Imaging and Cytology of Sorted Macrophages. For whole mount immunofluorescence imaging, after anesthesia and blood collection by cardiac puncture, the mice were perfused with 10 mL PBS at room temperature. Approximately 3 mm^3 pieces of the tissue were incubated in 4% paraformaldehyde (PFA) (Electron Microscopy) diluted in PBS for 30 min at room temperature with agitation, then rinsed with PBS and stained with directly conjugated antibodies for 30 minutes. Then the samples were rinsed with PBS 3× and mounted on cavity slides (Sigma) with Fluoromount G (eBioscience). Approximately 50 µm thick Z-stack and tile scan were acquired with LSM880 Zeiss microscope with 40x/1.3 (oil). Image analysis was performed using Imaris (Bitplane) software.
In Vitro Epididymal Adipose Tissue Explants. Epididymal fat pads of 4-day-old Tnfrsf11a^Cre+Csf1r^fl/fl mice and littermates were dissected and incubated in RPMI with 10% heat de-activated FBS at 37° C. for 14 days. Fresh medium was added to the explants on day 7. At the termination of the experiment, the explants were fixed in 4% PFA for 30 minutes at room temperature with agitation and then rinsed in PBS and permeabilized for 15 minutes in PBS + 0.03% Triton. Subsequently, the explants were blocked with 2% BSA and stained with directly conjugated antibodies. To remove macrophages from wt epididymal fat pads in vitro, 15 µM of the CSF1R inhibitor PLX5622 was added to explants on day 0 and 7 following the addition of fresh medium. For the in vitro rescue experiments, epididymal fat pads of Tnfrsf11a^Cre; Csf1r^fl/fl mice and littermates as well as […] treated fat pads were supplemented with 100 ng/ml of recombinant mouse PDGFcc (R&D systems), 10 ng/ml of recombinant mouse VEGFb (R&D systems), or 10 ng/ml of recombinant mouse IGF1 (R&D systems) three times on days 0, 3, and 6.

For another experiment, the target named is PDGFRB/B homodimers (Homo sapiens, UniProt P09619). To be noted: Gilbertson et al. 2001; cited from earlier work.
The next experiment addresses PDGFRA/A homodimers (Homo sapiens, UniProt P16234). As to conditions: Gilbertson et al. 2001; cited from earlier work.
Setting [2] is: 10% lipid diet + PLX5622 for 8 weeks.

PDGFRB/B homodimers, sequence (P09619 33-1106, species assumed): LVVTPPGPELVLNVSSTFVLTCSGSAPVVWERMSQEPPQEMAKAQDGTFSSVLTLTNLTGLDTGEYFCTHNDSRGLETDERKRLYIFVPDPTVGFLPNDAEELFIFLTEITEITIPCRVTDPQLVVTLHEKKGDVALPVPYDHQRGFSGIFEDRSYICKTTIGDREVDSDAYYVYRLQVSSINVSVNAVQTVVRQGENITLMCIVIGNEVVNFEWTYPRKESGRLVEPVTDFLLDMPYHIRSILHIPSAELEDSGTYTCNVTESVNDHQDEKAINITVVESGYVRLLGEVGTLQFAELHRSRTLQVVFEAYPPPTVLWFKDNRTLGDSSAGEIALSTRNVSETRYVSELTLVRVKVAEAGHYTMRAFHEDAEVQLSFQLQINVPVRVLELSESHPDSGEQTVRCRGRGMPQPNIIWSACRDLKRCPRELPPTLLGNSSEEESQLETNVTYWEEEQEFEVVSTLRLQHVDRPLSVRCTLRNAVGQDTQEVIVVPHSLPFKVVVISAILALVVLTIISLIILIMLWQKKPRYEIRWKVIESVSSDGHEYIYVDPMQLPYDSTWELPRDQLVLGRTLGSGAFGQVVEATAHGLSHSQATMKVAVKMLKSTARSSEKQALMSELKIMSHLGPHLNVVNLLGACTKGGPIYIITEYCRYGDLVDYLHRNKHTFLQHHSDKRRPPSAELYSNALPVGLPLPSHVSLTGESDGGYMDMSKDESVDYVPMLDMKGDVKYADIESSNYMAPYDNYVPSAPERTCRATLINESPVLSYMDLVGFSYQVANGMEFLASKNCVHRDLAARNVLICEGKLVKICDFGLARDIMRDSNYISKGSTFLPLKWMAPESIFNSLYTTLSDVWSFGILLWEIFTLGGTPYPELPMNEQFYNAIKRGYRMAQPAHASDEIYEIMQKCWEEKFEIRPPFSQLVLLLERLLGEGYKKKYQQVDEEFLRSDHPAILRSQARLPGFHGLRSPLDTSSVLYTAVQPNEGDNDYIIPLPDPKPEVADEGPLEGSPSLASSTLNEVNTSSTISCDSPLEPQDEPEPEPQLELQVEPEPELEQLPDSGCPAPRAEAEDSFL
PDGFRA/A homodimers, sequence (P16234 24-1089, species assumed): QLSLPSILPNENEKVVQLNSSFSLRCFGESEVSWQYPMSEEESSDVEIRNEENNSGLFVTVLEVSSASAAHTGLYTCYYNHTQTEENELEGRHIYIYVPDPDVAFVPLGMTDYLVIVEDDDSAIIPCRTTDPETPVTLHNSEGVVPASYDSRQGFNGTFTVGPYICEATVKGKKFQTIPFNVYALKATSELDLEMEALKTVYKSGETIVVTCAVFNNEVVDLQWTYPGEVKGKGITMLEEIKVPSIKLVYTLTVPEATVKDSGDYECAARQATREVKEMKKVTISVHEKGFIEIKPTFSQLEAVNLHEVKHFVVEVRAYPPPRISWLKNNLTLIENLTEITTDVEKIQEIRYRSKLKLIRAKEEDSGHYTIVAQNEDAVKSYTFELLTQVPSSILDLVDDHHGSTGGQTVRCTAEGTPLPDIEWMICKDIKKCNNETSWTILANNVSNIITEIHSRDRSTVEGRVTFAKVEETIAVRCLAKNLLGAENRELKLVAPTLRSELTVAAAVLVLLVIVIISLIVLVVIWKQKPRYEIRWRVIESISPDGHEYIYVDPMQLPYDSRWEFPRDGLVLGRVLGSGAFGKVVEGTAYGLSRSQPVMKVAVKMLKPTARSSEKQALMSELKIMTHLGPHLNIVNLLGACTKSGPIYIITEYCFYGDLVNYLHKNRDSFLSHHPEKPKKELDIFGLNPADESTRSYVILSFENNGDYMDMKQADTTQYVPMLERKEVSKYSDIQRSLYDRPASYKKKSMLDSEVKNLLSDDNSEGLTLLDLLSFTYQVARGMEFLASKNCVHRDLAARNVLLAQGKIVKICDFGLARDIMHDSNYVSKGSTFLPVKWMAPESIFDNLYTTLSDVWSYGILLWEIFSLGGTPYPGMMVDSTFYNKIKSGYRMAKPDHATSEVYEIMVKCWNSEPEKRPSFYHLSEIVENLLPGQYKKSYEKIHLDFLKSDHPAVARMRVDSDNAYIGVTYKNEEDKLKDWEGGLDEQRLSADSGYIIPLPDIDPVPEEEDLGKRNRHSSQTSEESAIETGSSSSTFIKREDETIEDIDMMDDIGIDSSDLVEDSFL

For the molecule `COc1ncc(F)cc1CNc1ccc(Cc2c[nH]c3ncc(C)cc23)c(F)n1` [PLX5622], in the experiment with C57B1/6J mice, the “Dio2 expression in the iBAT” value is on record as “increased”; the “F4/80+ Tim4- and Tim4+ macrophages” value was “lacked both F4/80^+ Tim4^- and Tim4^+ macrophages”; the “Ucpl expression in the iBAT” value was “increased”. Also, in the experiment with C57B1/6J mice (45% lipid diet), the TNF/IL1 production entry was “protected against”, the hepatic steatosis result is reported as “protected against” and the metabolic syndrome result is on record as “protected against”. In addition, in the experiment on C57B1/6J mice (high fat diet), the “Pdgfcc expression in fat pads” value is given as “did not increase”; the adipocyte hypertrophy entry is listed as “did not develop adipocyte hypertrophy”; the “visceral and subcutaneous white adipose tissue mass” value was “did not increase”; the weight gain result is reported as “gained less weight than controls”. For the same molecule, in the experiment with Lepr^-/- (db/db) mice (10% lipid diet + PLX5622), the “Pdgfc expression in adipose tissue” value is reported as “decreased”, the adipocyte size entry is recorded as “decreased” and the liver inflammation result was “decreased”. In addition, in the experiment on Lepr^-/- (db/db) mice (setting [2]), the adipose tissue mass entry was “decreased” and the weight gain result was “decreased”. For the same molecule, in the experiment with Lepr^-/- (db/db) mice (iBAT, PLX5622 in diet), the Dio2 expression result is reported as “increased” and the Ucpl expression result is reported as “increased”.
On to “IGF1: recombinant mouse IGF1 (R&D systems)”, for which the “rescue of bodipy staining (lipid storage)” value (shortened to “rescue of bodipy staining”) in experiment [1] is “not”.

B1: VEGFb: recombinant mouse VEGFb (R&D systems) (protein, UniProt P49766 22-207, looked up)
Vascular endothelial growth …: PVSQFDGPSHQKKVVPWIDVYARATCQPREVVVPLSMELMGNVVKQLVPSCVTVQRCGGCCPDDGLECVPTGQHQVRMQILMIQYPSSQLGEMSLEEHSQCECRPKKKESAVKPDRVAIPHHRPQPRSVPGWDSTPGASSPADIIHPTPAPGSSARLAPSAVNALTPGPAAAAADAAASSIAKGGA
Consider B1, for which the “rescue of bodipy staining” value in experiment [1] is “can also rescue lipid storage”.

B2: PDGFcc: mature PDGF-CC protein, growth factor domain dimer released by removal of the CUB domain; exemplary SEQ ID NO: 2 (protein, listed as Homo sapiens)
chain: VVDLNLLTEEVRLYSCTPRNFSVSIREELKRTDTIFWPGCLLVKRCGGNCACCLHNCNECQCVPSKVTKKYHEVLQLRPKTGVRGLHKSLTDVALEHHEECDCVCRGSTGG
modifications: homodimer
Regarding B2, in the experiment with PDGFRB/B homodimers, the “interaction with PDGFRB/B homodimers” value is reported as “fails to interact”. In addition, the “binding to PDGFRA/A homodimers” value with PDGFRA/A homodimers is “high affinity”.

B3: recombinant PDGFcc: Recombinant mouse PDGFcc, R&D systems Cat# 1447-PC-025/CF, active/cleaved form, SEQ ID NO: 3 (protein, listed as Mus sp.)
chain: VVNLNLLKEEVKLYSCTPRNFSVSIREELKRTDTIFWPGCLLVKRCGGNCACCLHNCNECQCVPRKVTKKYHEVLQLRPKTGVKGLHKSLTDVALEHHEECDCVCRGNAGG
With B3, the “rescue of bodipy staining” value in experiment [1] is “rescues bodipy staining to control levels”.
